Consider eleven molecules from article PMC12064818, “A general assay platform to study protein pharmacology using ligand-dependent structural dynamics” (Nature Communications, 2025).

Read-outs that look alike come from different tables or passages of the source.

Test [1] addresses T1, NLuc (Oplophorus gracilirostris, UniProt Q9GV45, A31E/A60N/A81I/F95D/I117V/K70R/L54V/L99Q/M102K/N193R/P142E/Q151K/Q38R/Q45L/V71I/Y165I).
T1 construct: His tag (inferred from IMAC purification); made in house; host or cells: E. coli
It counts as biochemical. The settings on record: - ATP. Put shortly: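 Luminescence was read 10 min after Nano-Glo reagent addition. Enzyme was 1 nM NLuc in PBS/0.05% IGEPAL buffer, with or without ATP.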

For test [2], the target named is FLuc-C-NLuc (firefly luciferase) (Photinus pyralis, UniProt P08659, form not given/L550V). Description: SDR assay, FLuc-C-NLuc. Particulars: - ATP.
FLuc-C-NLuc (firefly luciferase), sequence (P08659 2-550 L550V, form open): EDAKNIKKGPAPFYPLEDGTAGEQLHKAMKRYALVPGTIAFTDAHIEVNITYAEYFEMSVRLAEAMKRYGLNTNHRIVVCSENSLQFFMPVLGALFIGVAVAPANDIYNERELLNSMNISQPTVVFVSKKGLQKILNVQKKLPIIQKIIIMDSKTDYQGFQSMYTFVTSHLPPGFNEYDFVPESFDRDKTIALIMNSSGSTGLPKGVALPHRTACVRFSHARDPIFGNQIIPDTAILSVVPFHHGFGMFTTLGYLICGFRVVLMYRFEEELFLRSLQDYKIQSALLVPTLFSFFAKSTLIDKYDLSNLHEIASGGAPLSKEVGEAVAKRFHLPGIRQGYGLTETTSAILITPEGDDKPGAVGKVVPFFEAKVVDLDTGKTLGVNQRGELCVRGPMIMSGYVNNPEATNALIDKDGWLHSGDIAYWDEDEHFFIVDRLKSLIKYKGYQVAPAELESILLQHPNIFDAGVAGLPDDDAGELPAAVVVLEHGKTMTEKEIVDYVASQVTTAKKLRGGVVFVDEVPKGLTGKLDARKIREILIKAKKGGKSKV
The target in test [3] is FLuc-C-HiBiT (firefly luciferase) (Photinus pyralis, UniProt P08659, form not given/L550V). Description: SDR assay, FLuc-C-HiBiT. Particulars: SDR max. response, clade S. (HiBiT is a short tag that completes a luciferase, so light tracks the accessible tagged protein.)
FLuc-C-HiBiT (firefly luciferase), sequence (P08659 2-550 L550V, form open): as above
Test [4] has as its target P. pyralis FLuc (Photinus pyralis, UniProt P08659). Kind of test: FLuc enzymatic luminescence assay, P. pyralis FLuc. In kind it is biochemical. The settings on record: FLuc enzymatic assay; for IC50: read-out: IC50 or SDR50 (mM) FLuc E. Put shortly: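 Runs with and without 10 µM ATP: compounds were pre-incubated with FLuc (1–10 nM, PBS pH 7.4) at ambient temperature, light-protected, for 30–60 min. Luminescence was imaged 5 min after adding 10 µM D-luciferin (final). Inhibition was scaled between DMSO neutral and no-enzyme controls.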

P. pyralis FLuc, sequence (P08659 whole entry): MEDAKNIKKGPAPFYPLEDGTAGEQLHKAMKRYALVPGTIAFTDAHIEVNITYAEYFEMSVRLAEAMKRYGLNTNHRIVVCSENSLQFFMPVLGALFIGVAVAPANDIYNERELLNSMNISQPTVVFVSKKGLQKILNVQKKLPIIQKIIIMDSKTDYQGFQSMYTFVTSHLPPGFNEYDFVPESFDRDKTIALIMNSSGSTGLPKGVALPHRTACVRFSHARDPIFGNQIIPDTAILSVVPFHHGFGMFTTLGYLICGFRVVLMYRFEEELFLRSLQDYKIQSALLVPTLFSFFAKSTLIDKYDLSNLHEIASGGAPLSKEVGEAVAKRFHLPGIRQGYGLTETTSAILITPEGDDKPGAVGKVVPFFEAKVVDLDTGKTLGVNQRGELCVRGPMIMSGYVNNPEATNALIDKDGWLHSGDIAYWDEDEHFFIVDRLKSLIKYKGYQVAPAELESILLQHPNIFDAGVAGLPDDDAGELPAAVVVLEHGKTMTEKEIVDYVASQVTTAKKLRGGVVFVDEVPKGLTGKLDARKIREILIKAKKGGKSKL
T1 sequence (Q9GV45 other isoform, or with tags, fused parts or gaps with the stated changes): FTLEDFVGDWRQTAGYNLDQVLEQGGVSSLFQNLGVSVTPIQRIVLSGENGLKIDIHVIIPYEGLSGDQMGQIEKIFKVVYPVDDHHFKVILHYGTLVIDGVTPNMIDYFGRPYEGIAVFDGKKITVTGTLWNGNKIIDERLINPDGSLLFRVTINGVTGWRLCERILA

In general, IC50 refers to the concentration that inhibits the measured activity by half. With `Cc1ccc(C2Cn3cnc(C(=O)N4CCC(C(=O)NCc5ccccc5F)CC4)c3CO2)cc1` (centres unmarked) [NCGC00449888-01], the “Efficacy (%) NLuc (- ATP)” value in test [1] turned out to be 0.00%. Moreover, the “Efficacy (%) FLuc-C-NLuc SDR (-ATP)” value in test [2] is on record as 0.00%. In test [3], the “% Activity (max response, + ATP)” value is recorded as 72.23% and the “% Activity (max response, - ATP)” value came out at 0.00%. In addition, in test [4] (Clade S follow-up), the “Efficacy (%) FLuc E” value is given as -37.08%, the “pIC50 or pSDR50 FLuc E” value is listed as 4.91 and the IC50 turned out to be 0.0124 mM.
As to `Cc1ccc(NC(=O)C2CCN(C(=O)c3ncn4c3COC(c3ccc(F)cc3)C4)CC2)c(C)c1` (centres unmarked) [NCGC00449930-01], the “Efficacy (%) NLuc (- ATP)” value in test [1] worked out at 0.00%. Moreover, in test [2], the “Efficacy (%) FLuc-C-NLuc SDR (-ATP)” value amounted to 0.00%. In test [3], the “% Activity (max response, + ATP)” value came to 67.53% and the “% Activity (max response, - ATP)” value was 0.00%. Moreover, in test [4] (Clade S follow-up), the “Efficacy (%) FLuc E” value is given as -45.61%, the “pIC50 or pSDR50 FLuc E” value was 4.96 and the IC50 was 0.0111 mM.
Consider `O=C(NCCCc1ccccc1)C1CCN(C(=O)c2ncn3c2COC(c2ccc(F)cc2)C3)CC1` (centres unmarked) [NCGC00449829-01], for which the “Efficacy (%) NLuc (- ATP)” value in test [1] is -7.00%. The “Efficacy (%) FLuc-C-NLuc SDR (-ATP)” value in test [2] is listed as 0.00%. Besides, in test [3], the “% Activity (max response, + ATP)” value stood at 29.00% and the “% Activity (max response, - ATP)” value was found to be 0.00%. In test [4], the “pIC50 or pSDR50 FLuc E” value is reported as 4.96 and the IC50 came out at 0.0111 mM. The “Efficacy (%) FLuc E” value in test [4] (Clade S follow-up) is recorded as -36.00%.
In the case of `COc1cccc(CNC(=O)C2CCN(C(=O)c3ncn4c3COC(c3ccc(C)cc3)C4)CC2)c1` (centres unmarked) [NCGC00449886-01], the “Efficacy (%) NLuc (- ATP)” value in test [1] was -7.20%. Besides, in test [2], the “Efficacy (%) FLuc-C-NLuc SDR (-ATP)” value is 0.00%. For the same molecule, in test [3], the “% Activity (max response, + ATP)” value is recorded as 57.89% and the “% Activity (max response, - ATP)” value is given as 0.00%. Also, in test [4] (Clade S follow-up), the “Efficacy (%) FLuc E” value is listed as -31.42%, the “pIC50 or pSDR50 FLuc E” value came out at 4.91 and the IC50 was found to be 0.0124 mM.
For `O=C(NC1CCCCC1)C1CCN(C(=O)c2ncn3c2COC(c2ccc(Cl)cc2)C3)CC1` (centres unmarked) [NCGC00449844-01], the “Efficacy (%) NLuc (- ATP)” value in test [1] is reported as 0.00%. The “Efficacy (%) FLuc-C-NLuc SDR (-ATP)” value in test [2] came to 0.00%. In test [3], the “% Activity (max response, + ATP)” value turned out to be 33.25% and the “% Activity (max response, - ATP)” value is recorded as 0.00%. In test [4] (Clade S follow-up), the “Efficacy (%) FLuc E” value is -39.79%, the “pIC50 or pSDR50 FLuc E” value came out at 4.96 and the IC50 came to 0.0111 mM.
On to `CC(C)CNC(=O)C1CCN(C(=O)c2ncn3c2COC(c2ccc(F)cc2)C3)CC1` (centres unmarked) [NCGC00449805-01], for which, in test [1], the “Efficacy (%) NLuc (- ATP)” value worked out at 0.00%. Also, in test [2], the “Efficacy (%) FLuc-C-NLuc SDR (-ATP)” value came out at 0.00%. Moreover, in test [3], the “% Activity (max response, + ATP)” value stood at 48.51% and the “% Activity (max response, - ATP)” value turned out to be 0.00%. For the same molecule, the “Efficacy (%) FLuc E” value in test [4] (Clade S follow-up) was -24.33%.
In the case of `Cc1ccc(CNC(=O)C2CCN(C(=O)c3ncn4c3COC(c3ccccc3)C4)CC2)cc1` (centres unmarked) [NCGC00449774-01], the “Efficacy (%) NLuc (- ATP)” value in test [1] was found to be 0.00%. The “Efficacy (%) FLuc-C-NLuc SDR (-ATP)” value in test [2] turned out to be 0.00%. Further, in test [3], the “% Activity (max response, + ATP)” value is given as 316.62% and the “% Activity (max response, - ATP)” value came out at 0.00%. Further, in test [4], the “pIC50 or pSDR50 FLuc E” value is reported as 5.01 and the IC50 came to 0.00988 mM. Besides, the “Efficacy (%) FLuc E” value in test [4] (Clade S follow-up) is listed as -84.01%.
In the case of `CCc1ccc(CNC(=O)C2CCN(C(=O)c3ncn4c3COC(c3ccccc3)C4)CC2)cc1` (centres unmarked) [NCGC00449775-01], the “Efficacy (%) NLuc (- ATP)” value in test [1] is given as 0.00%. Besides, the “Efficacy (%) FLuc-C-NLuc SDR (-ATP)” value in test [2] was 0.00%. Besides, in test [3], the “% Activity (max response, + ATP)” value is recorded as 294.78% and the “% Activity (max response, - ATP)” value is 0.00%. Further, in test [4], the “pIC50 or pSDR50 FLuc E” value turned out to be 5.01 and the IC50 was found to be 0.00988 mM. For the same molecule, the “Efficacy (%) FLuc E” value in test [4] (Clade S follow-up) is listed as -61.62%.
In the case of `COCCCNC(=O)C1CCN(C(=O)c2ncn3c2COC(c2ccc(OC)cc2)C3)CC1` (centres unmarked) [NCGC00449877-01], in test [1], the “Efficacy (%) NLuc (- ATP)” value amounted to 0.00%. Moreover, the “Efficacy (%) FLuc-C-NLuc SDR (-ATP)” value in test [2] is listed as 0.00%. Besides, in test [3], the “% Activity (max response, + ATP)” value came out at 0.00% and the “% Activity (max response, - ATP)” value came out at 0.00%. For the same molecule, the “Efficacy (%) FLuc E” value in test [4] (Clade S follow-up) was found to be 0.00%.
For `Cc1ccc(CNC(=O)C2CCN(C(=O)c3ncn4c3COC(c3ccc(Cl)cc3)C4)CC2)cc1` (centres unmarked) [NCGC00449850-01], the “Efficacy (%) NLuc (- ATP)” value in test [1] amounted to 0.00%. Further, in test [2], the “Efficacy (%) FLuc-C-NLuc SDR (-ATP)” value worked out at 0.00%. In addition, in test [3], the “% Activity (max response, + ATP)” value came to 22.50% and the “% Activity (max response, - ATP)” value is on record as 0.00%. Further, in test [4] (Clade S follow-up), the “Efficacy (%) FLuc E” value is -21.67%.
On to `O=C(NCc1ccccc1)C1CCN(C(=O)c2ncn3c2COC(c2ccc(F)cc2)C3)CC1` (centres unmarked) [NCGC00449813-01], for which the “Efficacy (%) NLuc (- ATP)” value in test [1] came out at 0.00%. Further, in test [2], the “Efficacy (%) FLuc-C-NLuc SDR (-ATP)” value was found to be 0.00%. Further, in test [3], the “% Activity (max response, + ATP)” value is recorded as 33.80% and the “% Activity (max response, - ATP)” value is on record as 0.00%. Further, in test [4], the “pIC50 or pSDR50 FLuc E” value came out at 4.91 and the IC50 was 0.0124 mM. Also, in test [4] (Clade S follow-up), the “Efficacy (%) FLuc E” value is recorded as -31.52%.
